The values that follow come from US7820623B2 (priority 2006, dated 2010).

Read-outs that look alike come from different tables or passages of the source. Bridge positions count the residues as written; N and C are the ends. Square brackets hold non-standard residues; d marks the D form. Peptide text beside a SMILES is read from it. 1Nal = N[C@@H](Cc1cccc2ccccc12)C(=O)O

One series has as its target T1, human Kv1.1 (Homo sapiens, UniProt Q09470).
T1 construct: expressed in transfected cells; host or cells: HEK293
Format: cell-based.

The test system of series [1] is thapsigargin-induced IFN-g production in human whole blood. Format: cell-based. The note with it: for IC50: read-out: Analogue Activity (IC50) WB/IFNg.
In series [2] the test system is thapsigargin-induced IL-2 production in human whole blood. The note with it: for IC50: read-out: Analogue Activity (IC50) WB/IL-2.
The next series concerns the target T2, human Kv1.3 (CHO) (Homo sapiens, UniProt P22001).
T2 construct: expressed in transfected cells
Put plainly: cell-based. Format: cell-based.

A further series has as its target T3, human Kv1.1 (HEK293) (Homo sapiens, UniProt Q09470).
T3 construct: expressed in transfected cells; host or cells: HEK293
Put plainly: cell-based.

In the next series the target is human Kv1.3 (Homo sapiens, UniProt P22001). Put plainly: cell-based.
For series [3], the system named is IL-2R on CD4+ T cells in human whole blood. Format: cell-based.
Series [4] deals with CD40L on CD4+ T cells in human whole blood. Type of series: cell-based.

T3 sequence (Q09470 whole entry): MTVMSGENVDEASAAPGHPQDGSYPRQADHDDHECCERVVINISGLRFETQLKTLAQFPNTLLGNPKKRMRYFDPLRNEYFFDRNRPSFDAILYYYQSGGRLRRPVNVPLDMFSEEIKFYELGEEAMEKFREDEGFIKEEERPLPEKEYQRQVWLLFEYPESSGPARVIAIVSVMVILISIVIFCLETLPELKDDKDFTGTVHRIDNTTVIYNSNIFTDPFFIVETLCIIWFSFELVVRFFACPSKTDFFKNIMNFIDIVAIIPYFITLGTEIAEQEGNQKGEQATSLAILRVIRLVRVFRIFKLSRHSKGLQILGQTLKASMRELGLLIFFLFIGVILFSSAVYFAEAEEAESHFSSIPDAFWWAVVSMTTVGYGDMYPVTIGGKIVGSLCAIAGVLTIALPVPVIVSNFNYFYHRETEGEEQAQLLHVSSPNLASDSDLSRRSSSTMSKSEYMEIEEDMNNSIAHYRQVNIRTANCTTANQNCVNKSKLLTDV
T2 sequence (P22001 whole entry): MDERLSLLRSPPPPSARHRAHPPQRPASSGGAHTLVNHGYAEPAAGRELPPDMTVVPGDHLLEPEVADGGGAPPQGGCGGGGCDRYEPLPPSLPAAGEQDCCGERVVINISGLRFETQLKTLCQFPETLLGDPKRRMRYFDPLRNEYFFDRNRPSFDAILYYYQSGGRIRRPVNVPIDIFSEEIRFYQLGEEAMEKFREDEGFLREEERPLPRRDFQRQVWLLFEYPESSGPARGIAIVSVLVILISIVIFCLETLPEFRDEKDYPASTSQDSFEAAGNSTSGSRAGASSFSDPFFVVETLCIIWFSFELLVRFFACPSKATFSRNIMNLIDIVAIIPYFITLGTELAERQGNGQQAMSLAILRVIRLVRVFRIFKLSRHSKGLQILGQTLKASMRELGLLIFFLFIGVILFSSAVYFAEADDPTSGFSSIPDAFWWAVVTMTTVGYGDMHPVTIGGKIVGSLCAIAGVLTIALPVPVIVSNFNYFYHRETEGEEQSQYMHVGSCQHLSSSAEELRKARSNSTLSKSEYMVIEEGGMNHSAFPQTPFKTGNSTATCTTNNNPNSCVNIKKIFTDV
T1 sequence (Q09470 whole entry): as the sequence (Q09470 whole entry) above
Sequence of human Kv1.3 (P22001 whole entry): as the sequence (P22001 whole entry) above

“Fc-L10-OSK1[K7S,E16K,K20D]: Fc-L10-OSK1 with triple substitution K7S, E16K, K20D”: in the series with human Kv1.1 (read-out: hKv1.1: IC50), the IC50 turned out to be 10 nM.

Consider “Fc-L10-OSK1[E16K,K20D]: Fc-L10-OSK1 with glutamic acid to lysine at 16 and lysine to aspartic acid at 20”, for which the “blocking activity against Kv1.1” value with human Kv1.1 is listed as “removed the blocking activity against Kv1.1”.

As for `CC[C@H](C)[C@@H]1NC(=O)[C@H](CCCCN)NC(=O)[C@@H](NC(=O)[C@H](CCCCN)NC(=O)[C@@H](NC(=O)[C@H](CC(N)=O)NC(=O)[C@@H](NC(=O)[C@@H](NC(=O)[C@@H](NC(=O)CN)C(C)C)[C@@H](C)CC)[C@@H](C)CC)C(C)C)CSSC[C@@H]2NC(=O)[C@H](CCCCN)NC(=O)CNC(=O)[C@H](Cc3ccccc3)NC(=O)[C@H](CCCNC(=N)N)NC(=O)[C@H](CCSC)NC(=O)CNC(=O)[C@H](C)NC(=O)[C@H](CCCCN)NC(=O)[C@H](CCCCN)NC(=O)[C@@H]3CSSC[C@@H](C(=O)N[C@H](C(=O)N4CCC[C@H]4C(=O)N[C@@H](CCCCN)C(=O)O)[C@@H](C)O)NC(=O)[C@H](Cc4c[nH]cn4)NC(=O)[C@H](CSSC[C@H](NC(=O)[C@H](CCC(N)=O)NC(=O)[C@H](CCCNC(=N)N)NC(=O)[C@H](CO)NC1=O)C(=O)N[C@@H](CC(C)C)C(=O)N[C@@H](CCC(=O)O)C(=O)N1CCC[C@H]1C(=O)N3)NC(=O)[C@H](Cc1cccc3ccccc13)NC(=O)CNC(=O)[C@H](CC(N)=O)NC(=O)[C@H](CCSC)NC2=O` [K32Nal] (H-GVIINVKCKISRQCLEPCKKAGMRFGKCMNG[1Nal]CHCTPK-OH; disulfide 8-28, 14-33, 18-35), the IC50 in series [1] stood at 0.196 nM; in series [2], 0.134 nM; on human Kv1.3 (CHO) it was 0.0261 nM; at human Kv1.1 (HEK293), 0.00191 nM.

With `CC[C@H](C)[C@@H]1NC(=O)[C@H](CCCCN)NC(=O)[C@@H](NC(=O)[C@H](CCCCN)NC(=O)[C@@H](NC(=O)[C@H](CC(N)=O)NC(=O)[C@@H](NC(=O)[C@@H](NC(=O)[C@@H](NC(=O)CN)C(C)C)[C@@H](C)CC)[C@@H](C)CC)C(C)C)CSSC[C@@H]2NC(=O)[C@H](CCCCN)NC(=O)CNC(=O)[C@H](Cc3ccccc3)NC(=O)[C@H](CCCNC(=N)N)NC(=O)[C@H](CCSC)NC(=O)CNC(=O)[C@H](C)NC(=O)[C@H](CCCCN)NC(=O)[C@H](CCCCN)NC(=O)[C@@H]3CSSC[C@@H](C(=O)N[C@H](C(=O)N4CCC[C@H]4C(=O)N[C@@H](CCCCN)C(=O)O)[C@@H](C)O)NC(=O)[C@H](Cc4c[nH]cn4)NC(=O)[C@H](CSSC[C@H](NC(=O)[C@H](CCC(N)=O)NC(=O)[C@H](Cc4cccc5ccccc45)NC(=O)[C@H](CO)NC1=O)C(=O)N[C@@H](CC(C)C)C(=O)N[C@@H](CCC(=O)O)C(=O)N1CCC[C@H]1C(=O)N3)NC(=O)[C@H](CCCCN)NC(=O)CNC(=O)[C@H](CC(N)=O)NC(=O)[C@H](CCSC)NC2=O` [R12Nal] (H-GVIINVKCKIS[1Nal]QCLEPCKKAGMRFGKCMNGKCHCTPK-OH; disulfide 8-28, 14-33, 18-35), the IC50 in series [1] was found to be 0.387 nM; in series [2], 0.46 nM; at human Kv1.3 (CHO), 0.0377 nM; against human Kv1.1 (HEK293), 0.025 nM.

Consider E. coli-derived Fc-L-ShK[2-35], for which the IC50 came out at 1.3 nM in the series with human Kv1.3 (read-out: Kv1.3 IC50 by WCVC) and 2.8 nM with human Kv1.3 (CHO) (read-out: Kv1.3 IC50 by IWQ).

`CC[C@H](C)[C@@H]1NC(=O)[C@H](CCCCN)NC(=O)[C@@H](NC(=O)[C@H](CCCCN)NC(=O)[C@@H](NC(=O)[C@H](CC(N)=O)NC(=O)[C@@H](NC(=O)[C@@H](NC(=O)[C@@H](NC(=O)CN)C(C)C)[C@@H](C)CC)[C@@H](C)CC)C(C)C)CSSC[C@@H]2NC(=O)[C@H](CCCCN)NC(=O)CNC(=O)[C@H](Cc3ccccc3)NC(=O)[C@H](CCCNC(=N)N)NC(=O)[C@H](CCSC)NC(=O)CNC(=O)[C@H](Cc3cccc4ccccc34)NC(=O)[C@H](CCCCN)NC(=O)[C@H](CCCCN)NC(=O)[C@@H]3CSSC[C@@H](C(=O)N[C@H](C(=O)N4CCC[C@H]4C(=O)N[C@@H](CCCCN)C(=O)O)[C@@H](C)O)NC(=O)[C@H](Cc4c[nH]cn4)NC(=O)[C@H](CSSC[C@H](NC(=O)[C@H](CCC(N)=O)NC(=O)[C@H](CCCNC(=N)N)NC(=O)[C@H](CO)NC1=O)C(=O)N[C@@H](CC(C)C)C(=O)N[C@@H](CCC(=O)O)C(=O)N1CCC[C@H]1C(=O)N3)NC(=O)[C@H](CCCCN)NC(=O)CNC(=O)[C@H](CC(N)=O)NC(=O)[C@H](CCSC)NC2=O` [A21Nal] (H-GVIINVKCKISRQCLEPCKK[1Nal]GMRFGKCMNGKCHCTPK-OH; disulfide 8-28, 14-33, 18-35): the IC50 is 0.434 nM in series [1], 0.315 nM in series [2], 0.0261 nM at human Kv1.3 (CHO) and less than 0.00152 nM at human Kv1.1 (HEK293).

As to `CC[C@H](C)[C@H](NC(=O)[C@@H](NC(=O)CN)C(C)C)C(=O)N[C@H](C(=O)N[C@@H](CC(N)=O)C(=O)N[C@H](C(=O)N[C@@H](CCCCN)C(=O)N[C@H]1CSSC[C@@H]2NC(=O)[C@H](CCCCN)NC(=O)CNC(=O)[C@H](Cc3ccccc3)NC(=O)[C@H](CCCNC(=N)N)NC(=O)[C@H](CCSC)NC(=O)CNC(=O)[C@H](C)NC(=O)[C@H](CCCCN)NC(=O)[C@H](CCCCN)NC(=O)[C@@H]3CSSC[C@@H](C(=O)N[C@H](C(=O)N4CCC[C@H]4C(=O)N[C@@H](CCCCN)C(=O)O)[C@@H](C)O)NC(=O)[C@H](Cc4c[nH]cn4)NC(=O)[C@H](CSSC[C@H](NC(=O)[C@H](CCC(N)=O)NC(=O)[C@H](CCCNC(=N)N)NC(=O)[C@H](CO)NC(=O)[C@H](Cc4cccc5ccccc45)NC(=O)[C@H](CCCCN)NC1=O)C(=O)N[C@@H](CC(C)C)C(=O)N[C@@H](CCC(=O)O)C(=O)N1CCC[C@H]1C(=O)N3)NC(=O)[C@H](CCCCN)NC(=O)CNC(=O)[C@H](CC(N)=O)NC(=O)[C@H](CCSC)NC2=O)C(C)C)[C@@H](C)CC` [I10Nal] (H-GVIINVKCK[1Nal]SRQCLEPCKKAGMRFGKCMNGKCHCTPK-OH; disulfide 8-28, 14-33, 18-35), the IC50 is 0.257 nM in series [1], 0.184 nM in series [2], 0.0454 nM against human Kv1.3 (CHO) and less than 0.00152 nM at human Kv1.1 (HEK293).

Take `CC[C@H](C)[C@@H]1NC(=O)[C@H](CCCCN)NC(=O)[C@@H](NC(=O)[C@H](CCCCN)NC(=O)[C@@H](NC(=O)[C@H](CC(N)=O)NC(=O)[C@@H](NC(=O)[C@@H](NC(=O)[C@@H](NC(=O)[C@@H](N)Cc2cccc3ccccc23)C(C)C)[C@@H](C)CC)[C@@H](C)CC)C(C)C)CSSC[C@@H]2NC(=O)[C@H](CCCCN)NC(=O)CNC(=O)[C@H](Cc3ccccc3)NC(=O)[C@H](CCCNC(=N)N)NC(=O)[C@H](CCSC)NC(=O)CNC(=O)[C@H](C)NC(=O)[C@H](CCCCN)NC(=O)[C@H](CCCCN)NC(=O)[C@@H]3CSSC[C@@H](C(=O)N[C@H](C(=O)N4CCC[C@H]4C(=O)N[C@@H](CCCCN)C(=O)O)[C@@H](C)O)NC(=O)[C@H](Cc4c[nH]cn4)NC(=O)[C@H](CSSC[C@H](NC(=O)[C@H](CCC(N)=O)NC(=O)[C@H](CCCNC(=N)N)NC(=O)[C@H](CO)NC1=O)C(=O)N[C@@H](CC(C)C)C(=O)N[C@@H](CCC(=O)O)C(=O)N1CCC[C@H]1C(=O)N3)NC(=O)[C@H](CCCCN)NC(=O)CNC(=O)[C@H](CC(N)=O)NC(=O)[C@H](CCSC)NC2=O` [G1Nal] (H-[1Nal]VIINVKCKISRQCLEPCKKAGMRFGKCMNGKCHCTPK-OH; disulfide 8-28, 14-33, 18-35): the IC50 in series [1] came to 2.56 nM; in series [2] it was 2.79 nM; at human Kv1.3 (CHO), 0.0207 nM; against human Kv1.1 (HEK293) it was 0.0339 nM.

With `CC[C@H](C)[C@@H]1NC(=O)[C@H](CCCCN)NC(=O)[C@@H](NC(=O)[C@H](CCCCN)NC(=O)[C@@H](NC(=O)[C@H](CC(N)=O)NC(=O)[C@@H](NC(=O)[C@@H](NC(=O)[C@@H](NC(=O)CN)C(C)C)[C@@H](C)CC)[C@@H](C)CC)C(C)C)CSSC[C@@H]2NC(=O)[C@H](CCCCN)NC(=O)CNC(=O)[C@H](Cc3ccccc3)NC(=O)[C@H](CCCNC(=N)N)NC(=O)[C@H](CCSC)NC(=O)CNC(=O)[C@H](C)NC(=O)[C@H](CCCCN)NC(=O)[C@H](CCCCN)NC(=O)[C@@H]3CSSC[C@@H](C(=O)N[C@H](C(=O)N4CCC[C@H]4C(=O)N[C@@H](CCCCN)C(=O)O)[C@@H](C)O)NC(=O)[C@H](Cc4c[nH]cn4)NC(=O)[C@H](CSSC[C@H](NC(=O)[C@H](CCC(N)=O)NC(=O)[C@H](CCCNC(=N)N)NC(=O)[C@H](CCC(=O)O)NC1=O)C(=O)N[C@@H](CC(C)C)C(=O)N[C@@H](CCC(=O)O)C(=O)N1CCC[C@H]1C(=O)N3)NC(=O)[C@H](CCCCN)NC(=O)CNC(=O)[C@H](CC(N)=O)NC(=O)[C@H](CCSC)NC2=O` [S11E] (H-GVIINVKCKIERQCLEPCKKAGMRFGKCMNGKCHCTPK-OH; disulfide 8-28, 14-33, 18-35), the IC50 at human Kv1.3 (CHO) and at human Kv1.1 (HEK293) was greater than 3.33 nM throughout.

On to “Fc-L10-ShK[2-35]: human IgG1 Fc fused via 10 amino acid linker to ShK[2-35]”, for which, in series [1], the “thapsigargin-induced IFN-g production in human whole blood” value was “suppressed”. Also, in series [2], the “stability in whole blood” value is recorded as “stable in whole blood”, the “thapsigargin-induced IL-2 production in human whole blood” value is recorded as “suppressed” and the “times more potent than cyclosporine A in blocking IL-2 production (IC50)” value is recorded as “more than 200 times”. Also, in the series with human Kv1.3 (read-out: IC50 for block of the outward potassium current), the IC50 is 0.115 ± 0.018 nM.

Take “IbTx: BKCa channel inhibitor iberiotoxin, purchased from Bachem (QFTDVDCSVSKECWSVCKDLFGVDRGKCMGKKCRCYQ; Definition of Artificial Sequence: Synthetic peptide) [reference compound]”: in series [1], the “thapsigargin-induced IFN-g production in human whole blood” value is listed as “no significant activity”. Besides, the “thapsigargin-induced IL-2 production in human whole blood” value in series [2] was “no significant activity”. In series [3], the “thapsigargin-induced upregulation of the IL-2R on T cells” value is listed as “no significant activity”. Also, in series [4], the “thapsigargin-induced upregulation of CD40L on T cells” value is on record as “no significant activity”.
